Assays:
[1] = target: T1, Prostaglandin G/H synthase 2 (Homo sapiens, UniProt P35354)
T1 sequence (P35354 whole entry): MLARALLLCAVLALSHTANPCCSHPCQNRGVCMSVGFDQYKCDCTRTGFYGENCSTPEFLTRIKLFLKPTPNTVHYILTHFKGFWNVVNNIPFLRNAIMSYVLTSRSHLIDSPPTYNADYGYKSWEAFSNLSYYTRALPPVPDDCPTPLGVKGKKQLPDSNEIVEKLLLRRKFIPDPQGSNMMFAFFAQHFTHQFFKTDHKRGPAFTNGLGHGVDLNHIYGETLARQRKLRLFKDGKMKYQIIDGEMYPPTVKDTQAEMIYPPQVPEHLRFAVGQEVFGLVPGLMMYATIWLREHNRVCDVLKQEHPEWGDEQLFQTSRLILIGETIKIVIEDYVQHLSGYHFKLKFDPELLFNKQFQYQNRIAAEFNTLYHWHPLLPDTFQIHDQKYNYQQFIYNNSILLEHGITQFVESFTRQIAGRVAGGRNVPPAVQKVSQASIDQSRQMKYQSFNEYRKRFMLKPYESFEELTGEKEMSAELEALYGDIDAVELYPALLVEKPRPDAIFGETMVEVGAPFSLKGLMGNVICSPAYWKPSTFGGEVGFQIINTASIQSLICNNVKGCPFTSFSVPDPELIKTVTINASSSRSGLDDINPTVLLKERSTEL

[2] = Selectivity index,ratio of IC50 for ovine COX-1 to recombinant human COX-2
[3] = target: T2, Prostaglandin G/H synthase 1 (Ovis aries, UniProt P05979); assay: Inhibition of ovine COX-1 preincubated for 5 mins followed by addition of arachidonic acid as substrate measured after 2 mins by fluorescence analysis
T2 sequence (P05979 whole entry): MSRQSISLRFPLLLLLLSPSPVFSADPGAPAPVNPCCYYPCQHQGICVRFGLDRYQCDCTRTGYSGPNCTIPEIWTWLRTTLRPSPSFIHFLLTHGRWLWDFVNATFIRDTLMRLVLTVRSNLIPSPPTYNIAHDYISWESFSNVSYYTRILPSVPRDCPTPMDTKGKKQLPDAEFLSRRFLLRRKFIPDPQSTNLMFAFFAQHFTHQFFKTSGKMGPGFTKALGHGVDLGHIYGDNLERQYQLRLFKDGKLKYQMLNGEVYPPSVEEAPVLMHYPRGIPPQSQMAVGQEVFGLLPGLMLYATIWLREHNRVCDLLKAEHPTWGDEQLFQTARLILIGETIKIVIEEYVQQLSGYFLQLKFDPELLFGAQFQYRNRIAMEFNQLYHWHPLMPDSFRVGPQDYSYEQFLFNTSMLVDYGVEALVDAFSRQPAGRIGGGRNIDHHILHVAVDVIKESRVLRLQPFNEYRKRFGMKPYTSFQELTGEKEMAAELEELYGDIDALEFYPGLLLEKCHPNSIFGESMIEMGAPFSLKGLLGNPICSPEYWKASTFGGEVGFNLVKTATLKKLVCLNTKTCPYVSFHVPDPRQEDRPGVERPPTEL

[4] = target: COX-1/COX-2 (Homo sapiens) (UniProt P35354+P23219); assay: Selectivity index, ratio of IC50 for COX-2 (unknown origin) to COX-1 (unknown origin)
[5] = target: T1, Prostaglandin G/H synthase 2; assay: Inhibition of COX-2 (unknown origin)

COX-1/COX-2 (Homo sapiens), sequence (P23219 whole entry, looked up, one chain of several): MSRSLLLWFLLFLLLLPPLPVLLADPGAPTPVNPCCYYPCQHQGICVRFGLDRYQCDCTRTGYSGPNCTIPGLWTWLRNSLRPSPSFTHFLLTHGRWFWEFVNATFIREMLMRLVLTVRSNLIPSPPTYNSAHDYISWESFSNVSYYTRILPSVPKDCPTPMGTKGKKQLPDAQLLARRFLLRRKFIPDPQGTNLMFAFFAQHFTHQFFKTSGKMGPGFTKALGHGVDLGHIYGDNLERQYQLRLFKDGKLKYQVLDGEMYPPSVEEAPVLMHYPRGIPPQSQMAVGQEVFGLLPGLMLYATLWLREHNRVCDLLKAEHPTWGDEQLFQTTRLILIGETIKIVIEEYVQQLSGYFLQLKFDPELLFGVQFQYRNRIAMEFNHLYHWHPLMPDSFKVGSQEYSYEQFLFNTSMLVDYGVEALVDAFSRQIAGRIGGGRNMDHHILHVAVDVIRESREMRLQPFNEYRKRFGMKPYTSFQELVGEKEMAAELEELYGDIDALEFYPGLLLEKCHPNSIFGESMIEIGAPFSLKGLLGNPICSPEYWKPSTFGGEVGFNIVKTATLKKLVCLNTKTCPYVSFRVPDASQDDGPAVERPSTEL

SMILES | IC50 [1] [µM] | Ratio IC50 [2] | IC50 [3] [µM] | Ratio IC50 [4] | IC50 [5] [µM]
CS(=O)(=O)c1ccc(-c2cc(C(F)(F)F)nc(NCc3ccc(I)cc3)n2)cc1 | 0.85 | > 100 | > 100 | – | –
CS(=O)(=O)c1ccc(-c2cc(C(F)(F)F)nc(NCc3ccc(F)cc3)n2)cc1 | – | – | > 100 | – | –
Cc1ccc(Nc2c(F)cccc2I)c(CC(=O)O)c1 | – | – | – | 10 | 2.5
NS(=O)(=O)c1ccc(-n2nc(C(F)(F)F)cc2-c2ccc(I)cc2)cc1 | – | – | – | 10 | 8.2
Cc1ccc(Nc2c(F)cccc2Cl)c(CC(=O)O)c1 [LUMIRACOXIB] | – | – | – | – | 0.06
NS(=O)(=O)c1ccc(-c2cc(C(F)(F)F)nc(NCc3ccc(I)cc3)n2)cc1 | 13 | > 7.5 | > 100 | – | –
CS(=O)(=O)c1ccc(-n2nc(C(F)(F)F)cc2-c2ccc(I)cc2)cc1 | – | – | – | – | 5.2
CS(=O)(=O)c1ccc(-c2cc(C(F)(F)F)nc(OCc3ccc(I)cc3)n2)cc1 | 2.5 | > 40 | > 100 | – | –
